Laboratory results reported in patent publication US11649227B2, “Allosteric chromenone inhibitors of phosphoinositide 3-kinase (PI3K) for the treatment of disease” (Petra Pharma Corporation, priority 2020, dated 2023).
Values belong to the compound of their own block, whether it stands above or below them.

Legend:
[1] = biological target: human full length PIK3CA Wild-type (p110α/p85α complex) (Homo sapiens (Human), UniProt P42336); experiment: PI3K-Alpha kinase (PIK3CA) activity, wild-type, Transcreener ADP2 FI assay; conditions: PI3K-α (PIK3CA) wild-type, biochemical
human full length PIK3CA Wild-type (p110α/p85α complex), sequence (P42336 whole entry): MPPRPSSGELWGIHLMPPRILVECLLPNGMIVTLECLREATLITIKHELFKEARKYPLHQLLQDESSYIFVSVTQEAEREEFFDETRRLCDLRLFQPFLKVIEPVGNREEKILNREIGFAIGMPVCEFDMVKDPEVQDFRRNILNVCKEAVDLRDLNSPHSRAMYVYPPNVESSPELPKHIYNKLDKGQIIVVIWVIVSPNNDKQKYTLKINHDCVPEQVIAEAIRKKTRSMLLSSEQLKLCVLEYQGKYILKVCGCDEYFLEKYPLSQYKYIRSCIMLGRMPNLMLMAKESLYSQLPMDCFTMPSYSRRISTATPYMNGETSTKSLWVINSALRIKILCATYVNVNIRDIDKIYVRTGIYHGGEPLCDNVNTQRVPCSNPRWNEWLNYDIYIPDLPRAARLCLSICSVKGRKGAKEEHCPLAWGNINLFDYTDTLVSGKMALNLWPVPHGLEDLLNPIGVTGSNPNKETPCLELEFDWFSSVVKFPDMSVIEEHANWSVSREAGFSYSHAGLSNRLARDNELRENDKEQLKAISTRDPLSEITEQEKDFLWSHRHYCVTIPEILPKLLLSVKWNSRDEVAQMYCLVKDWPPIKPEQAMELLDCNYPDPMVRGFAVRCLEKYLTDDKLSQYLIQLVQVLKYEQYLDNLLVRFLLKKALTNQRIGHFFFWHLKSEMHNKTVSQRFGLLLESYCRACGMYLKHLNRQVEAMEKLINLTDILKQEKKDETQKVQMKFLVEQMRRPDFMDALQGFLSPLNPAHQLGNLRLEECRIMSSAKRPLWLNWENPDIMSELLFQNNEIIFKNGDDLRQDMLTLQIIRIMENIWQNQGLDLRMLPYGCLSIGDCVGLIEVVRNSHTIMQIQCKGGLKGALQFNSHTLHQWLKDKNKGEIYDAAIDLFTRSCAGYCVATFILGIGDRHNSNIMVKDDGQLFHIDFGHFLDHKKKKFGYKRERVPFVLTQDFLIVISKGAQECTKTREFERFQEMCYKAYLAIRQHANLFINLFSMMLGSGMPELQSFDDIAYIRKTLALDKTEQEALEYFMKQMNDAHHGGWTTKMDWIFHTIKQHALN
human full length PIK3CA Wild-type (p110α/p85α complex), sequence (P27986 whole entry partner): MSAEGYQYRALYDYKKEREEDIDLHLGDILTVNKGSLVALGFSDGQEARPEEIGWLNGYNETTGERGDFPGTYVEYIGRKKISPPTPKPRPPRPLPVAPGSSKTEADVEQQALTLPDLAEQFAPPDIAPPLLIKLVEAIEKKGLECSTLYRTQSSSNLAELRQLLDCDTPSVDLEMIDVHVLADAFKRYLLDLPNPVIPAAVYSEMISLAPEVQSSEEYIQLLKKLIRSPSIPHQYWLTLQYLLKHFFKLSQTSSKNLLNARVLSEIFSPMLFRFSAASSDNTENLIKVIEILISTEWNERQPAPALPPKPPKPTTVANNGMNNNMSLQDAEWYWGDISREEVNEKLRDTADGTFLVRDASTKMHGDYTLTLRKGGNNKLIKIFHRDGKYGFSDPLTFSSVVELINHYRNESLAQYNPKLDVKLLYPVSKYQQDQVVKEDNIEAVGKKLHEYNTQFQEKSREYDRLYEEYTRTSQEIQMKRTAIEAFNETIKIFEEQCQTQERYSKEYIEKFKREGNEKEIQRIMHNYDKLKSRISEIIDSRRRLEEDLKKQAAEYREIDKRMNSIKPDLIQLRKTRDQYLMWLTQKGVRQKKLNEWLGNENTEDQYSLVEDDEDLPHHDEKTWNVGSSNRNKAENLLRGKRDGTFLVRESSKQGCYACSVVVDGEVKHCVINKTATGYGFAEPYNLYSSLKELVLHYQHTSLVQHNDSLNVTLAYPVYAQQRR
Description: (§1) PI3K-Alpha kinase (PIK3CA) activity, wild-type and H1047R mutant and determining IC50 values for inhibitors
(§2) Recombinant, catalytically active human full length PIK3KA Wild-type and H1047R mutant were purchased as 1:1 complex of N-terminal 6×his tagged p110<(catalytic) and untagged p85<(regulatory subunit) from EMD Millipore Sigma (cat. no. 14-602M and 14-792M, respectively). The enzyme stocks were diluted to 5× stocks in buffer (20 mM HEPES pH 7.4, 100 mM NaCl, 0.5 mM EGTA, 0.01% triton-x-100) just before use. PIP2diC8 (Avanti Polar Lipids Inc., cat. no. 850185) or phosphoinositol-4,5-bisphosphate with phosphoserine (PIP2:PS) membrane (Thermo Fisher Scientific, cat. no. PV5100) was used as lipid substrates. PIP2diC8 lyophilized powder and PIP2:PS (1:19) membrane stock (1 mM in PIP2) were separately dissolved in milliQ water to a concentration of 250 uM and stored in −20° C. 10 mM stocks of compounds were serially diluted (3×) in neat DMSO and stored in a dessicator at room temperature. 5× compound stocks in 25% DMSO were prepared fresh from neat DMSO stocks. Wild-type (WT) and H1047R mutant protein, along with buffer components (except ATP), were incubated with or without compound at 27° C. for 1h. After incubation, the reaction was initiated by the addition of 5 uL of 125 uM ATP. A typical assay mixture (25 uL) comprised 40 mM HEPES buffer, pH 7.4, 25 mM MgCl2, 0.01% v/v triton-X-100, 5% v/v DMSO, 20 mM NaCl, 1-5 nM wt or H1047R, 25 uM ATP, and 50 uM PTP2diC8 or PTP2 in membrane. The reaction was allowed to proceed until about […] (2.5 uM ADP) after which time, 10 uL of reaction mixture was quenched with 25 uL of transcreener reagent (Transcreener ADP2 FI assay kit, BellBrook labs, Cat. No. 3013). The contents were incubated at rt for 1h and fluorescence was measured using a plate reader (Paradigm, Molecular Devices). The same assay was also run at pH 6.0 or 6.4 using MOPS buffer (Fisher BioReagents, CAS 1132-61-2). A calibration curve was generated under identical buffer conditions with varying ADP amounts. Using that, the observed fluorescence was converted to uM ADP. A plot between [ADP] and log[I] yielded the dose-response curves that enabled the calculation of IC50s.

[2] = biological target: human full length PIK3CA H1047R mutant (p110α/p85α complex) (Homo sapiens (Human), UniProt P42336, H1047R); experiment: PI3K-Alpha kinase (PIK3CA) activity, H1047R mutant, Transcreener ADP2 FI assay; conditions: PI3K-α (PIK3CA) H1047R mutant, biochemical
human full length PIK3CA H1047R mutant (p110α/p85α complex), sequence (P42336 whole entry H1047R): as the sequence (P42336 whole entry) above, with H1047R counted along it
human full length PIK3CA H1047R mutant (p110α/p85α complex), sequence (P27986 whole entry partner): as the sequence (P27986 whole entry partner) above
Description: as §1, §2

SMILES: Cc1cc(C(C)Nc2ccccc2C(=O)O)c2oc(N3CCC(C)(C)CC3)c(-c3cnoc3)c(=O)c2c1 (single isomer, unassigned) [Example 53]
IC50 [1]: 500 to 1000 nM
IC50 [2]: < 500 nM

SMILES: COC12CC(C1)N(c1cc(=O)c3cc(C)cc(C(C)Nc4ccccc4C(=O)O)c3o1)C2 (single isomer, unassigned) [Example 111, 2-[1-[2-(4-Methoxy-2-azabicyclo[2.1.1]hexan-2-yl)-6-methyl-4-oxo-chromen-8-yl]ethylamino]benzoic acid]
IC50 [1]: > 10000 nM
IC50 [2]: > 10000 nM

SMILES: Cc1cc(C(C)Nc2ccccc2C(=O)O)c2oc(N3Cc4ccc(F)cc4C3)cc(=O)c2c1 (single isomer, unassigned) [Example 123, 2-[1-[2-(5-Fluoroisoindolin-2-yl)-6-methyl-4-oxo-chromen-8-yl]ethylamino]benzoic acid]
IC50 [1]: 500 to 1000 nM
IC50 [2]: < 500 nM

SMILES: Cc1cc(C(C)Nc2ccccc2C(=O)O)c2oc(N3CCC(c4ccncc4)C3)cc(=O)c2c1 (single isomer, unassigned) [Example 194, 2-[1-[6-Methyl-4-oxo-2-[3-(4-pyridyl)pyrrolidin-1-yl]chromen-8-yl]ethylamino]benzoic acid 2,2,2-trifluoroacetic acid]
IC50 [1]: > 10000 nM
IC50 [2]: 500 to 1000 nM

SMILES: Cc1cc(C(C)Nc2ccccc2C(=O)O)c2oc(N3CC4(CCN4c4ccccc4)C3)cc(=O)c2c1 (single isomer, unassigned) [Example 203, 2-[1-[6-Methyl-4-oxo-2-(1-phenyl-1,6-diazaspiro[3.3]heptan-6-yl)chromen-8-yl]ethylamino]benzoic acid 2,2,2-trifluoroacetic acid]
IC50 [1]: 1000 to 5000 nM
IC50 [2]: < 500 nM

SMILES: CCC1(c2ccccc2)CN(c2cc(=O)c3cc(C)cc(C(C)Nc4ccccc4C(=O)O)c3o2)C1 (single isomer, unassigned) [Example 212, 2-[1-[2-(3-Ethyl-3-phenyl-azetidin-1-yl)-6-methyl-4-oxo-chromen-8-yl]ethylamino]benzoic acid 2,2,2-trifluoroacetic acid]
IC50 [1]: 500 to 1000 nM
IC50 [2]: < 500 nM

SMILES: Cc1cc(C(C)Nc2ccccc2C(=O)O)c2oc(N3CC(c4ccccc4)C3)cc(=O)c2c1 (single isomer, unassigned) [Example 236, 2-[1-[6-Methyl-4-oxo-2-(3-phenylazetidin-1-yl)chromen-8-yl]ethylamino]benzoic acid 2,2,2-trifluoroacetic acid]
IC50 [1]: 500 to 1000 nM
IC50 [2]: < 500 nM

SMILES: Cc1cc(C(C)Nc2cccc(F)c2C(=O)O)c2oc(N3Cc4ccc(F)cc4C3)c(C)c(=O)c2c1 (single isomer, unassigned) [Example 244, 2-Fluoro-6-[1-[2-(5-fluoroisoindolin-2-yl)-3,6-dimethyl-4-oxo-chromen-8-yl]ethylamino]benzoic acid]
IC50 [1]: 5000 to 10000 nM
IC50 [2]: > 10000 nM

SMILES: Cc1cc(C(C)Nc2ccccc2C(=O)O)c2oc(N3Cc4ccc(F)cc4C3)c(C)c(=O)c2c1 (single isomer, unassigned) [Example 272, 2-[1-[2-(5-Fluoroisoindolin-2-yl)-3,6-dimethyl-4-oxo-chromen-8-yl]ethylamino]benzoic acid]
IC50 [1]: 500 to 1000 nM
IC50 [2]: < 500 nM

SMILES: Cc1c(N2Cc3ccc(F)cc3C2)oc2c(C(C)Nc3ccccc3C(=O)O)cc(F)cc2c1=O (single isomer, unassigned) [Example 319, 2-[1-[6-Fluoro-2-(5-fluoroisoindolin-2-yl)-3-methyl-4-oxo-chromen-8-yl]ethylamino]benzoic acid]
IC50 [1]: 500 to 1000 nM
IC50 [2]: < 500 nM

SMILES: Cc1c(N2CCC3(CC2)CC3)oc2c(C(C)Nc3ccccc3C(=O)O)cc(F)cc2c1=O (single isomer, unassigned) [Example 328, 2-[1-[2-(6-Azaspiro[2.5]octan-6-yl)-6-fluoro-3-methyl-4-oxo-chromen-8-yl]ethylamino]benzoic acid]
IC50 [1]: < 500 nM
IC50 [2]: < 500 nM

SMILES: Cc1c(N2Cc3ccc(F)cc3C2)oc2c(C(C)Nc3ccccc3C(=O)O)cc(C(F)(F)F)cc2c1=O (single isomer, unassigned) [Example 343, 2-[1-[2-(5-Fluoroisoindolin-2-yl)-3-methyl-4-oxo-6-(trifluoromethyl)chromen-8-yl]ethylamino]benzoic acid]
IC50 [1]: 500 to 1000 nM
IC50 [2]: < 500 nM

SMILES: Cc1c(N2Cc3ccccc3C2)oc2c(C(C)Nc3ccccc3C(=O)O)cc(C(F)(F)F)cc2c1=O (single isomer, unassigned) [Example 348, 2-[1-[2-Isoindolin-2-yl-3-methyl-4-oxo-6-(trifluoromethyl)chromen-8-yl]ethylamino]benzoic acid]
IC50 [1]: 500 to 1000 nM
IC50 [2]: < 500 nM

Next, values leading:

IC50 [1]: > 10000 nM
IC50 [2]: > 10000 nM
SMILES: Cc1cc(C(C)Nc2ccccc2C(=O)O)c2oc(N3CCC(C)(C)CC3)c(-c3cnoc3)c(=O)c2c1 (single isomer, unassigned) [Example 54, 2-[1-[2-(4,4-Dimethyl-1-piperidyl)-3-isoxazol-4-yl-6-methyl-4-oxo-chromen-8-yl]ethylamino]benzoic acid]

IC50 [1]: 1000 to 5000 nM
IC50 [2]: 500 to 1000 nM
SMILES: COC12CC(C1)N(c1cc(=O)c3cc(C)cc(C(C)Nc4ccccc4C(=O)O)c3o1)C2 (single isomer, unassigned) [Example 112, 2-[1-[2-(4-Methoxy-2-azabicyclo[2.1.1]hexan-2-yl)-6-methyl-4-oxo-chromen-8-yl]ethylamino]benzoic acid]

IC50 [1]: > 10000 nM
IC50 [2]: 5000 to 10000 nM
SMILES: Cc1cc(C(C)Nc2ccccc2C(=O)O)c2oc(N3Cc4ccc(F)cc4C3)cc(=O)c2c1 (single isomer, unassigned) [Example 124, 2-[1-[2-(5-Fluoroisoindolin-2-yl)-6-methyl-4-oxo-chromen-8-yl]ethylamino]benzoic acid]

IC50 [1]: 1000 to 5000 nM
IC50 [2]: < 500 nM
SMILES: Cc1cc(C(C)Nc2ccccc2C(=O)O)c2oc(N3CC4(C3)CC(F)(F)C4)cc(=O)c2c1 (single isomer, unassigned) [Example 222, 2-[1[2-(6,6-Difluoro-2-azaspiro[3.3]heptan-2-yl)-6-methyl-4-oxo-chromen-8-yl]ethylamino]benzoic acid 2,2,2-trifluoroacetic acid]

IC50 [1]: < 500 nM
IC50 [2]: < 500 nM
SMILES: Cc1c(N2Cc3ccccc3C2)oc2c(C(C)Nc3ccccc3C(=O)O)cc(F)cc2c1=O (single isomer, unassigned) [Example 324, 2-[1-(6-Fluoro-2-isoindolin-2-yl-3-methyl-4-oxo-chromen-8-yl)ethylamino]benzoic acid]

IC50 [1]: < 500 nM
IC50 [2]: < 500 nM
SMILES: Cc1c(N2CCC(F)(F)CC2)oc2c(C(C)Nc3ccccc3C(=O)O)cc(F)cc2c1=O (single isomer, unassigned) [Example 326, 2-[1-[2-(4,4-Difluoro-1-piperidyl)-6-fluoro-3-methyl-4-oxo-chromen-8-yl]ethylamino]benzoic acid]

IC50 [1]: 500 to 1000 nM
IC50 [2]: < 500 nM
SMILES: CC(Nc1ccccc1C(=O)O)c1cc(C(F)(F)F)cc2c(=O)cc(N3Cc4ccc(F)cc4C3)oc12 (single isomer, unassigned) [Example 335, 2-[1-[2-(5-Fluoroisoindolin-2-yl)-4-oxo-6-(trifluoromethyl)chromen-8-yl]ethylamino]benzoic acid]

IC50 [1]: < 500 nM
IC50 [2]: < 500 nM
SMILES: CC(Nc1ccccc1C(=O)O)c1cc(C(F)(F)F)cc2c(=O)cc(N3Cc4ccccc4C3)oc12 (single isomer, unassigned) [Example 342, 2-[1-[2-Isoindolin-2-yl-4-oxo-6-(trifluoromethyl)chromen-8-yl]ethylamino]benzoic acid]
